The compounds below were run against Smo (Homo sapiens, UniProt Q99835) (assay: Bodipy-Cyclopamine Binding Assay (confirmation assay), Hek293-SMO cells).
Smo, sequence (Q99835 28-787): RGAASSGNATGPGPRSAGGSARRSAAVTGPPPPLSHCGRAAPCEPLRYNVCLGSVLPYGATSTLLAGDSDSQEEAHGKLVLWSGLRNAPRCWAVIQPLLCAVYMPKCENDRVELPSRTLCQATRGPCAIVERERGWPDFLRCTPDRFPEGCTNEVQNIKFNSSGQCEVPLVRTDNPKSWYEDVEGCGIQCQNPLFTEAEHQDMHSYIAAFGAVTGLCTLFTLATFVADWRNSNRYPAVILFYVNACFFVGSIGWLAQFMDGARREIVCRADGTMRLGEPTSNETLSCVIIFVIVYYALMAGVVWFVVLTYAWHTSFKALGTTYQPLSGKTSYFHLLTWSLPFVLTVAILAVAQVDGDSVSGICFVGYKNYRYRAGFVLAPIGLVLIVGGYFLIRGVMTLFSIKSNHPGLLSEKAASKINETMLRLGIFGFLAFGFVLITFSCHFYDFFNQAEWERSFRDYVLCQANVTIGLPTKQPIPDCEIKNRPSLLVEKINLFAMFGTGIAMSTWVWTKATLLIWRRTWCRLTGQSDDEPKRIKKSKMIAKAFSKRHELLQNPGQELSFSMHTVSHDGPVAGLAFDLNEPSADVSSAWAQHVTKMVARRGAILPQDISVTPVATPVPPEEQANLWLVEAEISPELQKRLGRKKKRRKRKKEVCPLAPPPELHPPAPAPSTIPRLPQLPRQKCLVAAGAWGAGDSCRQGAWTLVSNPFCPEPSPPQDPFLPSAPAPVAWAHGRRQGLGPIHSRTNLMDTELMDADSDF

Row | SMILES | IC50 [nM]
1 | CSc1ncc2c(n1)CCN(c1cc(-c3ncc(C)cc3C)c(Cl)cn1)C2=O [Compound A-96, 6-(5′-chloro-3,5-dimethyl-2,4′-bipyridin-2′-yl)-2-(methylthio)-7,8-dihydro-pyrido[4,3-d]pyrimidin-5(6H)-one] | 169
2 | CCOc1nc2c(s1)CN(c1cc(-c3ncc(C)cc3C)c(Cl)cn1)CC2 [Compound A46, 5-(5′-chloro-3,5-dimethyl-2,4′-bipyridin-2′-yl)-2-ethoxy-4,5,6,7-tetrahydro-thiazolo-[5,4-c]pyridine] | 158
3 | CCC(=O)Nc1cn2c(n1)CN(c1cc(-c3ncc(C)cc3C)c(Cl)cn1)CC2 [Compound A-13, N-(7-(5′-chloro-3,5-dimethyl-2,4′-bipyridin-2′-yl)-5,6,7,8-tetrahydroimidazo[1,2-a]pyrazin-2-yl)propionamide] | > 1000
4 | Cc1cnc(-c2cc(N3CCc4nc(Nc5ccccc5)sc4C3)ncc2Cl)c(C)c1 [Compound A-48, 5-(5′-chloro-3,5-dimethyl-2,4′-bipyridin-2′-yl)-N-phenyl-4,5,6,7-tetrahydro-thiazolo-[5,4-c]pyridin-2-amine] | 330
5 | CSc1ncc2c(n1)C(C)(C)CN(c1cc(-c3ncc(C)cc3C)c(Cl)cn1)C2 [Compound A-79, 6-(5′-chloro-3,5-dimethyl-2,4′-bipyridin-2′-yl)-8,8-dimethyl-2-(methylthio)-5,6,7,8-tetrahydro-pyrido-[4,3-d]pyrim-idine] | 188
6 | Cc1cnc(-c2cc(N3CCc4nc(OC5CCC5)sc4C3)ncc2Cl)c(C)c1 [Compound A-47, 5-(5′-chloro-3,5-dimethyl-2,4′-bipyridin-2′-yl)-2-cyclobutoxy-4,5,6,7-tetrahydro-thiazolo-[5,4-c]pyridine] | 88.3
7 | FC(F)(F)c1ccc(-c2cc(N3CCc4nc(NC5CC5)ncc4C3)ncc2Cl)nc1 [Compound A-114, 6-(5′-chloro-5-(trifluoro-methyl)-2,4′-bipyridin-2′-yl)-N-cyclopropyl-5,6,7,8-tetrahydro-pyrido-[4,3-d]pyrimidin-2-amine] | > 1000
8 | Cc1cnc(-c2cc(N3CCc4nc(NC(=O)NC(C)C)ncc4C3)ncc2Cl)c(C)c1 [Compound A-92, 1-(6-(5′-chloro-3,5-dimethyl-2,4′-bipyridin-2′-yl)-5,6,7,8-tetrahydropyrido-[4,3-d]pyrimidin-2-yl)-3-isopropylurea] | 961
9 | Cc1cnc(-c2cc(N3CCc4nc(S(C)(=O)=O)ncc4C3=O)ncc2Cl)c(C)c1 [Compound A-98, 6-(5′-chloro-3,5-dimethyl-2,4′-bipyridin-2′-yl)-2-(methyl-sulfonyl)-7,8-dihydro-pyrido[4,3-d]pyrimidin-5(6H)-one] | 835
10 | Clc1cnc(N2CCc3nc(NC4CC4)ncc3C2)cc1-c1cnccn1 [Compound A-116, 6-(5-chloro-4-(pyrazin-2-yl)pyridin-2-yl)-N-cyclopropyl-5,6,7,8-tetrahydropyrido[4,3-d]pyrimidin-2-amine] | 235
11 | Clc1cnc(N2CCc3nc(NC4CC4)ncc3C2)cc1-c1ncccn1 [Compound A-115, 6-(5-chloro-4-(pyrimidin-2-yl)pyridin-2-yl)-N-cyclopropyl-5,6,7,8-tetrahydropyrido[4,3-d]pyrimidin-2-amine] | > 1000
12 | Cc1cnc(-c2cc(N3CCc4nc(NC(=O)NC(C)C)sc4C3)ncc2Cl)c(C)c1 [Compound A-43, 1-(5-(5′-chloro-3,5-dimethyl-2,4′-bipyridin-2′-yl)-4,5,6,7-tetrahydro-thiazolo-[5,4-c]pyridin-2-yl)-3-isopropylurea] | 201
13 | Cc1cnc(-c2cc(N3CCn4cc(C(=O)N5CCOCC5)nc4C3)ncc2Cl)c(C)c1 [Compound A-5, (7-(5′-chloro-3,5-dimethyl-2,4′-bipyridin-2′-yl)-5,6,7,8-tetrahydro-imidazo-[1,2-a]pyrazin-2-yl)(morpholino) methanone] | 1150
14 | Cc1cnc(-c2cc(N3Cc4cnc(N5CCCC5)nc4C(C)(C)C3)ncc2Cl)c(C)c1 [Compound A-81, 6-(5′-chloro-3,5-dimethyl-2,4′-bipyridin-2′-yl)-8,8-dimethyl-2-(pyrrolidin-1-yl)-5,6,7,8-tetrahydro-pyrido-[4,3-d]pyrimidine] | 167
15 | Cc1cnc(-c2cc(N3CCc4nc(S(C)(=O)=O)ncc4C3)ncc2Cl)c(C)c1 [Compound A-64, 6-(5′-chloro-3,5-dimethyl-2,4′-bipyridin-2′-yl)-2-(methyl-sulfonyl)-5,6,7,8-tetrahydro-pyrido-[4,3-d]pyrim-idine] | 500
16 | Clc1cnc(N2CCc3nc(NC4CC4)ncc3C2)cc1-c1cccnc1 [Compound A-118, 6-(5′-chloro-3,4′-bipyridin-2′-yl)-N-cyclopropyl-5,6,7,8-tetrahydro-pyrido-[4,3-d]pyrimidin-2-amine] | > 1000
17 | COC1CCN(c2ncc3c(n2)CCN(c2cc(-c4ncc(C)cc4C)c(Cl)cn2)C3)CC1 [Compound A-68, 6-(5′-chloro-3,5-dimethyl-2,4′-bipyridin-2′-yl)-2-(4-methoxy-piperidin-1-yl)-5,6,7,8-tetrahydro-pyrido-[4,3-d]pyrim-idine] | 163
18 | CCOC(=O)c1cn2c(n1)CN(c1cc(-c3ncc(C)cc3C)c(Cl)cn1)CC2 [Compound A-1, ethyl 7-(5′-chloro-3,5-dimethyl-2,4′-bipyridin-2′-yl)-5,6,7,8-tetrahydro-imidazo-[1,2-a]pyrazine-2-carboxylate] | 321

Now from value to compound:

Row | IC50 [nM] | SMILES
19 | 101 | CCC(=O)Nc1nc2c(s1)CN(c1cc(-c3ncc(C)cc3C)c(Cl)cn1)CC2 [Compound A-25, N-(5-(5′-chloro-3,5-dimethyl-2,4′-bipyridin-2′-yl)-4,5,6,7-tetrahydro-thiazolo-[5,4-c]pyridin-2-yl)propion-amide]
20 | 48.8 | Cc1cnc(-c2cc(N3CCc4nc(-n5cccn5)ncc4C3)ncc2Cl)c(C)c1 [Compound A-59, 6-(5′-chloro-3,5-dimethyl-2,4′-bipyridin-2′-yl)-2-(1H-pyrazol-1-yl)-5,6,7,8-tetrahydro-pyrido-[4,3-d]pyrim-idine]
21 | 58.3 | Cc1cnc(-c2cc(N3CCc4nc(NC(=O)C(C)C)sc4C3)ncc2Cl)c(C)c1 [Compound A-24, N-(5-(5′-chloro-3,5-dimethyl-2,4′-bipyridin-2′-yl)-4,5,6,7-tetrahydro-thiazolo-[5,4-c]pyridin-2-yl)isobutyr-amide]
22 | 125 | Cc1cnc(-c2cc(N3CC(C)c4nc(N5CCC(O)CC5)ncc4C3=O)ncc2Cl)c(C)c1 (stereo not shown) [Compound A-78, 6-(5′-chloro-3,5-dimethyl-2,4′-bipyridin-2′-yl)-2-(4-hydroxy-piperidin-1-yl)-8-methyl-7,8-dihydro-pyrido[4,3-d]pyrimidin-5(6H)-one]
23 | 48.7 | Cc1cnc(-c2cc(N3CCc4nc(N5CCOCC5)ncc4C3)ncc2Cl)c(C)c1 [Compound A-56, 4-(6-(5′-chloro-3,5-dimethyl-2,4′-bipyridin-2′-yl)-5,6,7,8-tetrahydro-pyrido-[4,3-d]pyrimidin-2-yl)morpholine]
24 | 59.8 | Cc1cnc(-c2cc(N3CCc4nc(N(C)S(C)(=O)=O)ncc4C3)ncc2Cl)c(C)c1 [Compound A-58, N-(6-(5′-chloro-3,5-dimethyl-2,4′-bipyridin-2′-yl)-5,6,7,8-tetrahydro-pyrido-[4,3-d]pyrim-idin-2-yl)-N-methylmethane-sulfonamide]
25 | 92.9 | Cc1cnc(-c2cc(N3Cc4cnc(N5CCCC5)nc4C(C)C3)ncc2Cl)c(C)c1 (stereo not shown) [Compound A-77, 6-(5′-chloro-3,5-dimethyl-2,4′-bipyridin-2′-yl)-8-methyl-2-(pyrrolidin-1-yl)-5,6,7,8-tetrahydropyrido[4,3-d]pyrimidine]
26 | 54.8 | Cc1cnc(-c2cc(N3CCc4nc(NCC5CC5)sc4C3)ncc2Cl)c(C)c1 [Compound A-31, 5-(5′-chloro-3,5-dimethyl-2,4′-bipyridin-2′-yl)-N-(cyclopro-pylmeth-yl)-4,5,6,7-tetrahydro-thiazolo-[5,4-c]pyridin-2-amine]
27 | 14.1 | Cc1cnc(-c2cc(N3CCc4nc(NC(C)(C)C)ncc4C3)ncc2Cl)c(C)c1 [Compound A-61, N-tert-butyl-6-(5′-chloro-3,5-dimethyl-2,4′-bipyridin-2′-yl)-5,6,7,8-tetrahydro-pyrido-[4,3-d]pyrimidin-2-amine]
28 | 82.9 | Cc1cccnc1-c1cc(N2CCc3nc(NC4CC4)ncc3C2)ncc1Cl [Compound A-111, 6-(5′-chloro-3-methyl-2,4′-bipyridin-2′-yl)-N-cyclopropyl-5,6,7,8-tetrahydropyrido[4,3-d]pyrimidin-2-amine]
29 | 5.4 | Cc1cnc(-c2cc(N3CCc4nc(NC5CC5)ncc4C3)ncc2Cl)c(C)c1 [Compound A-52, 6-(5′-chloro-3,5-dimethyl-2,4′-bipyridin-2′-yl)-N-cyclopropyl-5,6,7,8-tetrahydropyrido[4,3-d]pyrimidin-2-amine]
30 | 97.8 | Cc1cnc(-c2cc(N3CCc4nc(OC(C)C)ncc4C3)ncc2Cl)c(C)c1 [Compound A-69, 6-(5′-chloro-3,5-dimethyl-2,4′-bipyridin-2′-yl)-2-isopropoxy-5,6,7,8-tetrahydro-pyrido-[4,3-d]pyrim-idine]
31 | 86.7 | Cc1cnc(-c2cc(N3CCc4nc(N5CCC(O)CC5)sc4C3)ncc2Cl)c(C)c1 [Compound A-32, 1-(5-(5′-chloro-3,5-dimethyl-2,4′-bipyridin-2′-yl)-4,5,6,7-tetrahydro-thiazolo-[5,4-c]pyridin-2-yl)piperidin-4-ol]
32 | 105 | Cc1cnc(-c2cc(N3Cc4cnc(N5CC(C)NC(C)C5)nc4C(C)(C)C3)ncc2Cl)c(C)c1 (stereo not shown) [Compound A-82, 6-(5′-chloro-3,5-dimethyl-2,4′-bipyridin-2′-yl)-2-(3,5-dimethyl-piperazin-1-yl)-8,8-dimethyl-5,6,7,8-tetrahydro-pyrido-[4,3-d]pyrimidine]
33 | 22.9 | Cc1cnc(-c2cc(N3CCc4nc(N(C)CCO)ncc4C3)ncc2Cl)c(C)c1 [Compound A-54, 2-((6-(5′-chloro-3,5-dimethyl-2,4′-bipyridin-2′-yl)-5,6,7,8-tetrahydro-pyrido-[4,3-d]pyrimidin-2-yl)(methyl)-amino)ethanol]
34 | 151 | Cc1cnc(-c2cc(N3CCc4nc(NC(=O)CCN5CCCCC5)sc4C3)ncc2Cl)c(C)c1 [Compound A-40, N-(5-(5′-chloro-3,5-dimethyl-2,4′-bipyridin-2′-yl)-4,5,6,7-tetrahydro-thiazolo-[5,4-c]pyridin-2-yl)-3-(piperidin-1-yl)propanamide]

Reference: patent US9695178B2, “6-(2-pyridyl)-7,8-dihydro-5H-pyrido[4,3-D]pyrimidine analogs as hedgehog pathway signaling inhibitors and therapeutic applications thereof” (Suzhou Yunxuan Yiyao Keji Youxian Gongsi, priority 2013, dated 2017)
